Measurements reported in US20250042920A1 (OCEAN UNIVERSITY OF CHINA, priority 2021, published 2025).
One block for each molecule: values may come before it.

How the values were obtained:
MNK1 = MNK1 (Homo sapiens, UniProt Q9BUB5); assay: MNK1 kinase inhibition assay (LANCE Ultra kinase activity assay, PerkinElmer); assay type: biochemical; conditions: 450 μM ATP; for inhibition at 1 µM: inhibition rate at 1000 nM compound, 60 min, 25° C., read-out: Inhibitory activity(1 μM) MNK1
MNK2 = MNK2 (Homo sapiens, UniProt Q9HBH9); assay: MNK2 kinase inhibition assay (LANCE Ultra kinase activity assay, PerkinElmer); assay type: biochemical; conditions: 100 μM ATP; for inhibition at 1 µM: inhibition rate at 1000 nM compound, 60 min, 25° C., read-out: Inhibitory activity(1 μM) MNK2
[1] = system: C57BL/6J male mice, high-fat diet obesity model; assay: Weight loss trial in a high-fat feeding obesity model; assay type: in vivo; conditions: obese C57BL/6J mice; 50 or 100 mg/kg daily gavage; after 1 month of treatment
Description: C57BL/6J male mice were fed with high-fat diet (60 kcal %) and low-fat diet (10 kcal %), respectively. After 16 weeks, the obesity model was successfully established (the body weight of high-fat diet was higher than 20% of the body weight of low-fat diet). They were divided into blank group, 12 high dose group (100 mg/kg), 12 low dose group (50 mg/kg) and orlistat group (50 mg/kg). The mice in the control group were given normal saline as the control, and the daily afternoon gavage of the drug for 4 weeks.

[2] = system: STZ+ high-fat fed type 2 diabetic Kunming mice; assay: Hypoglycemic test in STZ+ high-fat fed diabetic mouse model; assay type: in vivo; conditions: for blood glucose: gavage, 8 weeks (FIG. 1)
Description: A total of 50 male Kunming mice were fed in a constant temperature of 25° C. with free access to food and water. After 5 days of adaptive feeding, the mice were divided into two groups for the first time. The first group (n=10) was the blank group (C) fed with normal diet, and the rest were the second group (n=40) fed with 60% high-fat diet to induce high-fat model and free access to water for 4 weeks. At the fifth week, the mice in the second group were injected with streptozotocin (STZ) to induce type 2 diabetes model. The total injection dose was 150 mg/kg, and the feeding conditions were unchanged. Type 2 diabetic mice with blood glucose levels higher than 11 mmol/L were divided into model group (M, n=10) and […]. Distilled water), metformin group (Meft, 225 mg/kg/d), compound 12 low-dose group (2A-L, 50 mg/kg/d), compound 12 high-dose group (2A-H, 100 mg/kg/d). The […] in group M were given distilled water by gavage every morning, and the dosage was Meft: 225 mg/kg. 2A-L: 50 mg/kg; 2A-H: 100 mg/kg. The mice were administrated by gavage at a dose of […] for 8 weeks, and the body weight and fasting blood glucose were measured regularly during the period.

male db/db mice = assay: Insulin tolerance and liver function improvement test in male db/db mouse model; assay type: in vivo
Description: Six-week-old male db/db mice were randomly divided into 6 groups of 12 mice in each group: Model group (M, distilled water), metformin group (Meft, 200 mg/kg/d), lovastatin group (6 mg/kg), compound 12 low dose group (20 mg/kg/d), compound 12 middle dose group (40 mg/kg/d), compound 12 high dose group (80 mg/kg/d). They were raised in a constant temperature of 25° C. and fed and drinking freely. The mice were administrated by gavage at a dose of […] for 6 weeks, and the body weight and fasting blood glucose were measured regularly during the period.
Insulin tolerance test (ITT) was performed with […] (1.0 U/ml, 1.0 U/kg) and fasting for 4 hours in the morning. In the afternoon experiment, weight was weighed, blood glucose was measured before insulin injection, insulin injection volume was calculated according to body weight, and blood glucose was measured at 15 min, 30 min, 45 min, and 60 min. At the end of the experiment, each cage was supplemented with feed.

[3] = compared with the model group (FIG. 3)
[4] = high-dose group (80 mg/kg/d) vs model group (FIG. 5)

Sequence of MNK1 (Q9BUB5 whole entry): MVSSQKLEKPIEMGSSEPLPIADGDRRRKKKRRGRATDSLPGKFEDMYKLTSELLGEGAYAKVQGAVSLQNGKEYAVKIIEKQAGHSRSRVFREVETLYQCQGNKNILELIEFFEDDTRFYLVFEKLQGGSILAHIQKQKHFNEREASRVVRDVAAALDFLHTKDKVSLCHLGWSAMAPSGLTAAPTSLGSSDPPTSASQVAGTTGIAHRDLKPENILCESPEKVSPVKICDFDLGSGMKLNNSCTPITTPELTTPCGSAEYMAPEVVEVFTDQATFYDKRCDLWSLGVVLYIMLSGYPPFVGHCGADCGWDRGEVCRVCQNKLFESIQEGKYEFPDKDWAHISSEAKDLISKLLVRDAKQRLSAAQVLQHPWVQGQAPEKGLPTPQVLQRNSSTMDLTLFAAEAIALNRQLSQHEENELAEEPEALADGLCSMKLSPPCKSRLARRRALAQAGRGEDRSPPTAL
Sequence of MNK2 (Q9HBH9 whole entry): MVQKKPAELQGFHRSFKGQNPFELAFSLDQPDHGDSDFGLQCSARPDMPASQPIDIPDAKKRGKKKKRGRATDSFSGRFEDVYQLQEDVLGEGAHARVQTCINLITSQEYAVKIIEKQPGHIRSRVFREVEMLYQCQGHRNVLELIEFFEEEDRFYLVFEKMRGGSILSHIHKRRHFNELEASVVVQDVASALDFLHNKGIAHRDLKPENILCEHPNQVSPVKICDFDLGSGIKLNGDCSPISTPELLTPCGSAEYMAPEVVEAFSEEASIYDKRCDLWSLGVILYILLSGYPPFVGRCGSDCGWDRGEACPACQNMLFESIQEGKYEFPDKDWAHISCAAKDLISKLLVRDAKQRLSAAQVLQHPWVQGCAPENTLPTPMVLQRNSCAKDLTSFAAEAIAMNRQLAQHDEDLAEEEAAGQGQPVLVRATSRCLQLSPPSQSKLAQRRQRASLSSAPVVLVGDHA

IC50 (MNK1; five concentrations 10000-1 nM): < 50 nM | inhibition at 1 µM (MNK1): > 75% | IC50 (MNK2; five concentrations 10000-1 nM): < 50 nM | inhibition at 1 µM (MNK2): > 75%
Structure (SMILES): CN(C)C1CCN(C(=O)c2ccc(-c3nn4c(-c5ccc(C#N)cc5)cnc4s3)cc2)CC1 [Compound 12, 4-(2-(4-(4-(dimethylamino)piperidine-1-carbonyl)phenyl)imidazo[2,1-b][1,3,4]thiadiazol-5-yl)benzonitrile]
body weight [1]: decreased significantly | glucose tolerance ([2]; 50 and 100 mg/kg/d (FIG. 2)): improved | serum AST levels ([2]; FIG. 3): significantly reduced | serum creatinine (CREA) ([2]; after administration, vs model group (FIG. 3)): decreased significantly | serum TC [2, 3]: significantly decreased | serum TG [2, 3]: significantly decreased | hypoglycemic effect compared with positive control (metformin, 225 mg/kg) ([2]; high dose group 100 mg/kg/d): better hypoglycemic effect than the positive control | blood glucose ([2]; high dose group 100 mg/kg/d): significantly reduced | insulin sensitivity (insulin tolerance test) ([2]; low and high dose groups vs model group, after intraperitoneal insulin (FIG. 2)): restored insulin sensitivity | hypoglycemic effect compared with positive control (metformin, 225 mg/kg) ([2]; low dose group 50 mg/kg/d): equivalent to that of the positive control group | blood glucose ([2]; low dose group 50 mg/kg/d): significantly reduced | reduction of TC compared with metformin ([2]; metformin 225 mg/kg/d): even better than metformin | blood levels of GLP-1 (male db/db mice; FIG. 6): Increased | serum content of insulin INS (male db/db mice; after high dose administration (FIG. 6)): significantly increased | inflammatory cytokine IL-6 (male db/db mice; at low doses (FIG. 6)): significantly decreased | inflammatory cytokine TNF (male db/db mice; at low doses (FIG. 6)): significantly decreased | plasma BNP (male db/db mice; at low doses (FIG. 6)): significantly decreased | insulin sensitivity (insulin tolerance test, ITT) (male db/db mice; db/db mice, gavage 6 weeks, each drug group, especially 12 high-dose group (80 mg/kg/d) (FIG. 4)): significantly improved | serum ALT (male db/db mice; [4]): significant decreases | serum AST (male db/db mice; [4]): significant decreases | serum total bile acid content (male db/db mice; [4]): significant decreases

inhibition at 1 µM (MNK1): 25 to 50% | inhibition at 1 µM (MNK2): 25 to 50%
Structure (SMILES): CN1CCN(C(=O)c2ccc(-c3cn4c(-c5ccc(Cl)cc5)csc4n3)cc2)CC1 [Compound 51, (4-(3-(4-chlorophenyl)imidazo[2,1-b]thiazol-6-yl)phenyl)(4-methylpiperazin-1-yl)methanone]

inhibition at 1 µM (MNK1): 25 to 50% | inhibition at 1 µM (MNK2): 25 to 50%
Structure (SMILES): O=C(c1ccc(-c2cn3c(-c4ccc(F)cc4)csc3n2)cc1)N1CCC(N2CCOCC2)CC1 [Compound 52, 6-(4-(4-morpholinepiperidinebasecarbonyl)phenyl)-3-(4-fluorinatedphenyl) imidazole [2,1-b]thiazole compounds]

inhibition at 1 µM (MNK1): 25 to 50% | inhibition at 1 µM (MNK2): 25 to 50%
Structure (SMILES): CN(C)C1CCN(C(=O)c2ccc(-c3cn4c(-c5ccc(F)cc5)csc4n3)cc2)CC1 [Compound 53, (4-(dimethylamino)piperidin-1-yl)(4-(3-(4-fluorophenyl)imidazo[2,1-b]thiazol-6-yl)phenyl)methanone]

inhibition at 1 µM (MNK1): 25 to 50% | inhibition at 1 µM (MNK2): 25 to 50%
Structure (SMILES): CN(C)C1CCN(C(=O)c2ccc(-c3cn4c(-c5ccc(C(F)(F)F)cc5)csc4n3)cc2)CC1 [Compound 54, (4-(dimethylamino)piperidin-1-yl)(4-(3-(4-(trifluoromethyl)ph-enyl)imidazo [2,1-b]thiazol-6-yl)phenyl)methanone]

inhibition at 1 µM (MNK1): 25 to 50% | inhibition at 1 µM (MNK2): 25 to 50%
Structure (SMILES): CN(C)C1CCN(C(=O)c2ccc(-c3cn4c(-c5ccc(Cl)cc5)csc4n3)cc2)CC1 [Compound 55, (4-(3-(4-chlorophenyl)imidazo[2,1-b]thiazol-6-yl)phenyl)(4-(dimethylamino)piperidin-1-yl)methanone]
